“And” between values parts separate entries of the source, which are not always exact repeats. Equal entries are not always repeated. “Also recorded” adds a separate entry of the source.
Columns and labels:
[1] = test system: Human epithelial adult keratinocytes (HEKa); experiment: scratch assay of HEKa, automated microscope analyzer; assay type: cell-based; conditions: HEKa with vs without vemurafenib; evident at 6, 8 and 12 hours
From the text: (§1) FIG. 2 illustrates that BRAF inhibition induces paradoxical MAPK activation in human keratinocytes leading to increased proliferation. FIG. 2A is a quantitative analysis of proliferation and scratch healing as the percentage relative wound density of cells at different time points in replicate cultures of HEKa in the presence or absence of vemurafenib by automated microscope analyzer. P value <0.0044 by t-test. […] FIG. 2C illustrates fold-change representation of colony quantification of HEKa and M249 cells grown in soft-agar with or without exposure to vemurafenib. […] The co-expression levels of pERK and Ki67 are shown in the middle of the panel, and quantified and represented a fold change on the left.
(§2) Quantitative analysis of proliferation is represented in FIG. 2A.
(§3) Human epithelial adult keratinocytes (HEKa) cultured in 96-well plates were subject to a scratch assay, where proliferating keratinocytes should regrow and cover the scratch. Replicate cultures with or without the BRAF inhibitor vemurafenib were placed in an incubator with an automated microscope analyzer and the number of nucleated cells in the original scratch was recorded over time. […] Using these cultures, paradoxical MAPK activation and cell proliferation were analyzed by western blot (FIGS. 2F-2G) and quantitative phosphoflow cytometry (FIG. 2H and FIGS. 4A-4B).

[2] = test system: Human epithelial adult keratinocytes (HEKa); experiment: cell proliferation wound-healing assay, 96 well plates with seeder stoppers; assay type: cell-based; conditions: 24 hours, vs control treated wells
From the text: as §1, §3

[3] = test system: HEKa; experiment: three-dimensional soft agar colony assay, HEKa; assay type: cell-based, human
From the text: as §1, §2, §3

[4] = test system: BRAF^V600E mutant melanoma line M249; experiment: three-dimensional soft agar colony assay, M249; assay type: cell-based, human; conditions: M249, with vs without exposure
From the text: as §1, §2, §3

[5] = test system: pERK and Ki67 in HEKa cells; experiment: paradoxical MAPK activation and cell proliferation by western blot and phosphoflow cytometry, HEKa; assay type: cell-based, human; conditions: western blot and phosphoflow (VEM 2 μM)
From the text: as §1, §3

[6] = test system: pERK and Ki67 in BRAF^V600E mutant human melanoma cell line M249; experiment: MAPK signaling and cell proliferation by western blot and phosphoflow cytometry, M249; assay type: cell-based; conditions: western blot and phosphoflow (VEM 2 μM)
From the text: as §1, §3

[7] = test system: 2.5 cm dorsal skin wound; experiment: wound-healing assay in C3H mice, wound tensile strength by tensiometer; assay type: in vivo
Method: FIG. 5A is a schematic representation of the wound-healing assay performed in […] mice according to some embodiments.
In a controlled wound-healing assay in C3H mice, a 2.5 cm dorsal skin wound was induced and was filled with either vehicle control (DMSO/saline) or a suspension of 2 mM of vemurafenib (obtained by crushing clinical grade pills of this agent) in vehicle. The skin wounds were surgically clipped on day 0 and mice were followed until day 14 (FIGS. 5A-5B). Over this time, the vemurafenib suspension or vehicle control was applied topically every other day to 24 mice in the test group or to 24 mice in the control group, respectively, for a total of seven doses per mouse. On day 14, the mice were euthanized and the skin containing the wound was removed and mounted in 20 mm strips with a horizontal wound sample in each strip. The wound tensile strength (WTS) was analyzed using a tensiometer that stretched the strips and recorded the WTS in gram force (gf).

[8] = test system: skin wounds and their surroundings; experiment: histological analysis (H&E) of healing wounds in mice; assay type: in vivo
From the text: FIG. 6 is a schematic representation of the pathological analysis of wound healing on days 1 (D1), 2 (D2) and 6 (D6) post-treatment. […] Wound-adjacent epidermis undergoes hyperplasia and proliferation and epidermal cells from this process migrate centrally to seal the incised epidermal deficiency. The space of the incision fills initially with fibrin, which is then colonized by fibroblasts, macrophages, polymorphonuclear cells and new capillaries. […] Each bar includes data from 4 samples.
The area of the wounds and their surroundings were analyzed histologically by H&E staining by two pathologists and the extent of epidermal hyperplasia on both sides of the healing wounds was measured on days 1, 2 and 6 post-treatment (FIGS. 6A and 6B).

[9] = test system: MAPK and wound healing pathway output; experiment: RNASeq gene expression profiling of healing cutaneous wounds; assay type: in vivo, mice
Method: The skin samples obtained from mice treated either with vemurafenib or vehicle were analyzed for changes in MAPK and wound healing pathway output by RNASeq. The gene output of MAPK was compared to published data on the transcripts that were differentially modulated by blocking oncogenic MAPK signaling downstream of mutated BRAF^V600E using BRAF inhibitors, or to a published cutaneous wound healing gene signature.

CCCS(=O)(=O)Nc1ccc(F)c(C(=O)c2c[nH]c3ncc(-c4ccc(Cl)cc4)cc23)c1F [vemurafenib]
covering of the original scratch (proliferation and scratch healing, relative wound density) [1]: accelerated the proliferation and migration of human keratinocytes; also recorded: statistically significant improvement in the covering of the original scratch | covering of the center of the wells by proliferating/migrating keratinocytes [2]: covered the center of the wells after 24 hours | mean spot size of HEKa colonies ([3]; soft agar): increased significantly | number of HEKa colonies in soft agar ([3]; with vs without exposure): increased in number | number of M249 colonies in soft agar [4]: decrease in colonies | cell cycle (Ki67) [5]: cell cycle progression | pERK [5]: paradoxical increase in pERK | cell cycle (Ki67) [6]: cell cycle arrest | pERK [6]: decreased pERK | improvement in wound tensile strength (WTS) compared to saline control ([7]; C3H mice, 2 mM suspension topically every other day, day 14, three independent replicate experiments (#1-3)): 52.6% and 32.9% and 42.8% | improvement in WTS vs. vehicle control ([7]; separate cutaneous wound-healing assay (Experiment #4), trametinib 1 mg/kg where added): 37% | tensile strength of healing wounds (in words) ([7]; wound-healing mouse model, topically applied): improved the tensile strength of healing wounds | wounds re-epithelialized ([8]; by day 6): 100% | extent (length) of epidermal hyperplasia vs other treated groups ([8]; day 1 and 2): epidermal hyperplasia over a greater distance than the other treated groups | wound-adjacent epidermal inflammation ([8]; day 1 post-incision): more extensive | wound-adjacent (peri-lesional) epidermal hyperplasia, photomicrographs ([8]; day 2 post-incision): more extensive | dermal reparative / sub-epidermal fibrosis ([8]; day 6): beginning of sub-epidermal fibrosis | extent (length) of epidermal hyperplasia vs other treated groups ([8]; day 6): less epidermal hyperplasia | skin surface integrity ([8]; day 6): surface integrity was re-established; also recorded: Skin surface integrity re-established in 6 days | healing process / signs of healing or repair (pathologists' assessment) ([8]; days 1 to 6): the healing process is accelerated | onset of re-epithelialization ([8]; from day 2): strong and rapid re-epithelialization starting at day 2 | BRAF and wound-healing signatures, later course ([9]; after day 6, time point not given): more pronounced decrease | BRAF signature genes ([9]; day 2, vs control): slight increase | wound-healing signature genes ([9]; day 2, vs control): almost no change | BRAF signature genes ([9]; day 6, vs control): enriched significantly | wound-healing signature genes ([9]; day 6, vs control): enriched significantly

— US20170100345A1, “WOUND HEALING USING BRAF INHIBITORS” (THE REGENTS OF THE UNIVERSITY OF CALIFORNIA, priority 2014, published 2017)
